Like-named read-outs stand apart in the source and are kept apart here.
Tests used:
[1] = test system: lipid peroxide in homogenates of brain, heart and kidneys; test: Tissue migration: antioxidative action on lipids ex vivo in tissue homogenates after intraperitoneal administration; details: Rattus norvegicus, ip, 0.5 h, male SD rats, 100 mg/kg intraperitoneally, 30 minutes after administration
Description: (§1) The antioxidative action on lipids in vitro of the compounds according to the present invention was evaluated in accordance with the method of Malvy et al. (Malvy C. et al.,) described in Biochemical and Biophysical Research Communications, 1980, vol. 95, pp. 734 to 737,) by measuring the lipid peroxide activity in a rat brain homogenate. Namely, the rat brain was removed followed by the addition of five volumes of an aqueous solution of phosphate buffered saline (pH 7.4) (hereinafter, abbreviated as PBS) to the brain while cooling with water, homogenizing with a Teflon homogenizer, and centrifuging for 20 minutes at 10,000 g to collect the supernatant as a brain homogenate. 500 μM cysteine, 5 μM ferrous sulfate, and 100 mM KCl were added to the resulting brain homogenate followed by incubating for 30 minutes at 37° C. and measuring the malondialdehyde that formed due to decomposition of lipid peroxide using the thiobarbituric acid method. The 50% inhibitory concentrations (hereinafter, abbreviated as IC50) of the compounds according to the present invention were then determined from the measured values.
Tissue migration of the compounds according to the present invention was evaluated by measuring the antioxidative action on lipids ex vivo. A test compound dissolved or suspended in an aqueous physiological saline solution or aqueous physiological saline solution containing 1% polyethylene hardened castor oil (Nikko Chemicals: Nikkol HCO-60) was intraperitoneally administered to male SD rats (age: 6 weeks) (purchased from Japan SLC) in groups of 3 animals each at a dose of 100 mg/kg. The animals were sacrificed by exsanguination by severing the carotid artery 30 minutes after administration followed by removing the brain, heart and kidneys. The lipid peroxide activity of homogenates of each tissue was measured using the method described in Example 3. The inhibition rates of the test compounds in each tissue were determined from the amounts of lipid peroxide formed in a control group (physiological saline dose group) and test compound groups.

[2] = test system: mice administered ferrous chloride into the spinal subarachnoid cavity; test: Antioxidative action in vivo: abnormal behavior and mortality after ferrous chloride into the spinal subarachnoid cavity; set-up: species or system mouse; details: male ICR mice, 30 minutes before ferrous chloride, score after 60 minutes
Description: The antioxidative action in vivo of the compounds according to the present invention was evaluated according to the method described in the Journal of Medical Chemistry (J. Med. Chem., 1997, vol. 40, pp. 559 to 573) based on the inhibitory effects on abnormal behavior and mortality rate following administration of ferrous chloride into the spinal subarachnoid cavity of mice. Male S1c:ICR mice (age: 5 weeks) (purchased from Japan SLC) were used in groups of 3 to 7 animals each, and were administered 5 μl of aqueous physiological saline solution containing 50 mM ferrous chloride into the spinal column between the 5th and 6th lumbar vertebra. […] The test compounds were dissolved or suspended in an aqueous physiological saline solution or an aqueous physiological saline solution containing 1% polyethylene hardened castor oil (manufactured by Nikko Chemicals CO., LTD. under the name of NIKKOL HCO-60), and administered intraperitoneally or orally 30 minutes before the administration of ferrous chloride. The 50% inhibitory dose (hereinafter, abbreviated as ID50) of each test compound was determined from the score of a control group (physiological saline treated group) and the score of each test compound treated group.

[3] = test system: lipid peroxides in retina homogenate; test: Retina migration: formation of lipid peroxides in retina ex vivo after oral administration; set-up: species or system rat; details: male SD rats, retinas removed 30 minutes later, auto-oxidized 1 hour at 37° C.
Description: The retina migration of the compounds according to the present invention was evaluated. The test compounds dissolved or suspended in 0.1 N aqueous hydrochloric acid solution or 1% polyethylene hardened castor oil (Nikkol HCO-60) solution were orally administered to male SD rats (age: 6 weeks) in groups of three animals each followed by removing both eyes 30 minutes later and separating the retinas while cooling with ice. The retinas were homogenized with a Polytron Microhomogenizer (NS-310E: manufactured by Niti-On Medical and Physical Instruments) in 0.1 M Tris-HCl buffer (pH 7.4) while cooling with ice to prepare 5% homogenates. The homogenates were then auto-oxidized for 1 hour at 37° C., and the amounts of lipid peroxide that formed were quantified using the thiobarbituric acid method (Masugi, et al., Vitamin, 51, 21 to 29, 1977).

[4] = test system: lipid peroxide in rat brain homogenate; test: Antioxidative action on lipids in vitro (lipid peroxide activity in rat brain homogenate, thiobarbituric acid method); format: biochemical; details: 500 μM cysteine, 5 μM ferrous sulfate, 100 mM KCl, 30 minutes at 37° C., malondialdehyde, read-out: 50% inhibitory concentration of anti-lipid peroxide action in vitro (IC50)
Description: as §1

5-lipoxygenase (5-LO) = molecular target: T1, 5-lipoxygenase (5-LO) (Homo sapiens, UniProt P09917); test: 5-LO inhibitory activity (leucotriene B4 formation in human peripheral blood mononuclear cells, A23187); format: cell-based; details: 30 μM A23187, read-out: Lipoxygenase inhibitory action 50% inhibitory concentration (IC50 μm) 5-LO
T1 construct: human peripheral blood mononuclear cells; endogenous in cells; host or cells: human peripheral blood mononuclear cells
T1 sequence (P09917 1-674): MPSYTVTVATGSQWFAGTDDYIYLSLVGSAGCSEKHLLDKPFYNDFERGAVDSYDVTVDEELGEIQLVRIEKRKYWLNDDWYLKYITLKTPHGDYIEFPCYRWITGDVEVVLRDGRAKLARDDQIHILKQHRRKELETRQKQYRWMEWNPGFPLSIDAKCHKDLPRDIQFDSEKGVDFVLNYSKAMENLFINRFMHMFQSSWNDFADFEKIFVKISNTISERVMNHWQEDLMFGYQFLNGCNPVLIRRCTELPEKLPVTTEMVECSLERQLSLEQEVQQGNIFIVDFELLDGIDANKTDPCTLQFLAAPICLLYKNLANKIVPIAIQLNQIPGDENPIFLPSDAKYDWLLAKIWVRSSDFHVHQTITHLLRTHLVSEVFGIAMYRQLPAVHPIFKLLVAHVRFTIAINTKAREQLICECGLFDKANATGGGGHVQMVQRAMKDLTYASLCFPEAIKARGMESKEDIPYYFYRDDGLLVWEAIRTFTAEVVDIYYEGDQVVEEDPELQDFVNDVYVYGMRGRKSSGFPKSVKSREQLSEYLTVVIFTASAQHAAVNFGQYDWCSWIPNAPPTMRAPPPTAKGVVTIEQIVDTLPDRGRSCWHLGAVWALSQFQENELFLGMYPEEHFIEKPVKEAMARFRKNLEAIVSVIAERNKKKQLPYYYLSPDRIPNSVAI
Description: 5-LO inhibitory activity was measured using a variation of the method of Carter et al. (Carter G. W. et al., J. Pharmacol. Exp. Ther., 256, 929 to 937, 1991). Namely, after pre-incubating (37° C., 15 minutes) in Hank's solution human peripheral blood mononuclear cells and a test compound dissolved in DMSO (final concentration: 1%), 30 μM A23187 was added and the resulting solution was additionally incubated (37° C., 30 minutes). The resulting leucotriene B4 that formed was quantified by enzyme immunoassay, and the 50% formation inhibitory concentration (μM) of the test compound with respect to 5-LO was calculated from that value.

15-lipoxygenase (15-LO) = molecular target: T2, 15-lipoxygenase (15-LO) (Oryctolagus cuniculus, UniProt P12530); test: 15-LO inhibitory activity (15-LO from rabbit reticulocytes, linoleic acid, 15-HETE formation); format: biochemical; details: 256 μM linoleic acid, 4° C., read-out: Lipoxygenase inhibitory action 50% inhibitory concentration (IC50 μm) 15-LO
T2 construct: 15-LO obtained from rabbit reticulocytes; from tissue; host or cells: rabbit reticulocytes
T2 sequence (P12530 1-663): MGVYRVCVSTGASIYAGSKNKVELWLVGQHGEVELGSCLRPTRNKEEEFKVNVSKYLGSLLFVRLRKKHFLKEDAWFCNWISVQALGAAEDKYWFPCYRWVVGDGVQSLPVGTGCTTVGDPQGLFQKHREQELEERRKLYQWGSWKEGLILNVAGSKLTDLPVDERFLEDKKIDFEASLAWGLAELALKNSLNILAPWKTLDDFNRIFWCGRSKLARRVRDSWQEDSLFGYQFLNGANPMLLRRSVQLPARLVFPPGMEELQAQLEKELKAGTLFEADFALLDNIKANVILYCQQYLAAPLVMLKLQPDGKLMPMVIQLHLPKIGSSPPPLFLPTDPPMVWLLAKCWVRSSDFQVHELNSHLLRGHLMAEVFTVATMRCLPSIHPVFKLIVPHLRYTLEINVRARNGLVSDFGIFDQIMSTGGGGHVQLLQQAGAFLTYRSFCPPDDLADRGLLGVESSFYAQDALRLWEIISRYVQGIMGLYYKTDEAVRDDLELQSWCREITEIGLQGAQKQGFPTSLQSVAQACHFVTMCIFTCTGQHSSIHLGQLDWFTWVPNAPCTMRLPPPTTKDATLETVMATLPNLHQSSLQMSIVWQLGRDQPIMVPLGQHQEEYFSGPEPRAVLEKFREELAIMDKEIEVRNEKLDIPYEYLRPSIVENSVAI
Description: 15-LO inhibitory activity was measured using a variation of the method of Auerbach et al. (Auerbach B. J. et al., Anal. Biochem., 201, 375 to 380, 1992). Namely, after pre-incubating (4° C., 15 minutes) in phosphate buffer (pH 7.4) 15-LO obtained from rabbit reticulocytes and a test compound dissolved in DMSO (final concentration: 1%), 256 μM linoleic acid was added and the resulting solution was additionally incubated (4° C., 10 minutes). The resulting 15-HETE that formed was quantified by spectrophotometry (OD660 nm), and the 50% formation inhibitory concentration (μM) of the test compound with respect to 15-LO was calculated from that value.

[5] = brain, read-out: Inhibition rate of ex vivo anti-lipid peroxide action (%) Brain
[6] = heart, read-out: Inhibition rate of ex vivo anti-lipid peroxide action (%) Heart
[7] = kidney, read-out: Inhibition rate of ex vivo anti-lipid peroxide action (%) Kidney

SMILES: Cc1c(C)c2c(c(C)c1N)CC(C)(C(=O)Nc1ccc(-n3ccnc3)cc1)O2 (racemic) [Compound 1, (±)-(5-amino-2,4,6,7-tetramethyldihydrobenzofuran-2-yl)-N-[4-(imidazol-1-yl)phenyl]carboxamide]
- inhibition at 100 mg/kg [1, 5]: 83%
- inhibition at 100 mg/kg [1, 6]: 80%
- inhibition at 100 mg/kg [1, 7]: 87%
- Antioxidative action in vivo 50% inhibitory dose (ID50 mg/kg) Intraperitoneal administration [2]: 6.8 mg/kg
- Antioxidative action in vivo 50% inhibitory dose (ID50 mg/kg) Oral administration [2]: 9.7 mg/kg
- Inhibitory effect on formation of lipid peroxides in retina ex vivo 30% inhibitory concentration (ID30 mg/kg, oral administration) [3]: 16 mg/kg

SMILES: Cc1c(C)c2c(c(C)c1N)CC(C)(C(=O)Nc1ccc(-c3ccn[nH]3)cc1)O2 (stereo not drawn) [Compound 37]
- IC50 [4]: 800 nM
- inhibition at 100 mg/kg [1, 5]: 95%
- inhibition at 100 mg/kg [1, 6]: 87%
- inhibition at 100 mg/kg [1, 7]: 89%
- Antioxidative action in vivo 50% inhibitory dose (ID50 mg/kg) Intraperitoneal administration [2]: 12 mg/kg
- Antioxidative action in vivo 50% inhibitory dose (ID50 mg/kg) Oral administration [2]: 27 mg/kg
- Inhibitory effect on formation of lipid peroxides in retina ex vivo 30% inhibitory concentration (ID30 mg/kg, oral administration) [3]: 5.2 mg/kg
- IC50 (5-lipoxygenase (5-LO)): 230 nM
- IC50 (15-lipoxygenase (15-LO)): 2060 nM

SMILES: Cc1c(C)c2c(c(C)c1O)CC(C)(OC=Nc1ccc(-n3ccnc3)cc1)O2 (stereo not drawn) [Control drug 1, reference compound]
- IC50 [4]: 230 nM
- inhibition at 100 mg/kg [1, 5]: 68%
- inhibition at 100 mg/kg [1, 6]: 59%
- inhibition at 100 mg/kg [1, 7]: 75%
- Antioxidative action in vivo 50% inhibitory dose (ID50 mg/kg) Intraperitoneal administration [2]: >30 mg/kg
- Antioxidative action in vivo 50% inhibitory dose (ID50 mg/kg) Oral administration [2]: >30 mg/kg

SMILES: Cc1c(C)c2c(c(C)c1O)CCC(C)(OC=Nc1ccc(-n3ccnc3)cc1)O2 (stereo not drawn) [Control drug 2, reference compound]
- IC50 [4]: 230 nM
- inhibition at 100 mg/kg [1, 5]: 45%
- inhibition at 100 mg/kg [1, 6]: 57%
- inhibition at 100 mg/kg [1, 7]: 84%
- Antioxidative action in vivo 50% inhibitory dose (ID50 mg/kg) Intraperitoneal administration [2]: 20 mg/kg
- Antioxidative action in vivo 50% inhibitory dose (ID50 mg/kg) Oral administration [2]: 53 mg/kg
